The source of these data is US9174995B2, “Pyrrolotriazinone derivatives” (Merck Patent GmbH, priority 2012, dated 2015).

Bounds are passed on as bounds.

The test system of assay [1] is Tankyrases. Put plainly: Cellular inhibition of Tankyrase: increase of Axin2 level in DLD1 cells (Luminex). It is filed as cell-based. To be noted: 24 hours, read-out: EC50 tankyrase ½ (cell assay). On the procedure:
Measurement of Cellular Inhibition of Tankyrase
Since Tankyrases have been described to modulate cellular level of Axin2 (Huang et al., 2009; Nature) the increase of Axin2 level is used as readout for determination of cellular inhibition of Tankyrases in a Luminex based assay.
Cells of the colon carcinoma cell line DLD1 are plated in 96 well plates with 1.5×10^4 cells per well. Next day, cells are treated with a serial dilution of test compound in seven steps as triplicates with a final DMSO concentration of 0.3%. After 24 hours, cells are lysed in lysis buffer (20 mM Tris/HCl pH 8.0, 150 mM NaCl, 1% NP40, 10% Glycerol) and lysates are cleared by centrifugation through a 96 well filter plate (0.65 μm). Axin2 protein is isolated from cell lysates by incubation with a monoclonal anti-Axin2 antibody (R&D Systems #MAB6078) that is bound to fluorescent carboxybeads. Then, bound Axin2 is specifically detected with a polyclonal anti-Axin2 antibody (Cell Signaling #2151) and an appropriate PE-fluorescent secondary antibody. The amount of isolated Axin2 protein is determined in a Luminex^200 machine (Luminex Corporation) according to the manufacturer's instruction by counting 100 events per well. Inhibition of Tankyrase by test compounds results in higher levels of Axin2 which directly correlates with an increase of detectable fluorescence. As controls cells are treated with solvent alone (neutral control) and with a Tankyrase reference inhibitor IWR-2 (3E-06 M) which refers as control for maximum increase of Axin2. For analysis, the obtained data are normalized against the untreated solvent control and fitted for determination of the EC50 values using the Assay Explorer software (Accelrys).

For assay [2], the target named is T1, GST-tagged Tnks-2 (873-1166 aa) (Homo sapiens, UniProt Q9H2K2).
T1 construct: GST-tagged Tnks-2 (873-1166 aa, prepared in-house); made in house
Put plainly: TNKS2 activity ELISA (autoparsylation assay). The class given is biochemical. How it is done:
Description of the TNKS1 and TNKS2 ELISA Assay
Biochemical Activity Testing of TNKS 1 and 2: Activity ELISA (Autoparsylation Assay)
For analysis of autoparsylation activity of TNKS 1 and 2 an activity ELISA is performed: In the first step GST tagged TNKS is captured on a Glutathione coated plate. Then the activity assay with biotinylated NAD is performed in the absence/presence of the compounds. During the enzymatic reaction GST tagged TNKS transfers biotinylated ADP-ribose to itself from biotinylated NAD as co-substrate. For the detection streptavidin-HRP conjugate is added that binds to the biotinylated TNKS and is thereby captured to the plates. The amount of biotinylated resp. autoparsylated TNKS is detected with a luminescence substrate for HRP. The level of the luminescence signal correlats directly with the amount of autoparsylated TNKS and therefore with activity of TNKS.
The activity ELISA is performed in 384 well Glutathione coated microtiter plates (Express capture Glutathione coated plate, Biocat, Heidelberg, Germany). The plates are pre-equilibrated with PBS. Then the plates are incubated with 50 μl 20 ng/well GST-tagged Tnks-1 (1023-1327 aa, prepared in-house), respectively GST-tagged Tnks-2 (873-1166 aa, prepared in-house) in assay buffer (50 mM HEPES, 4 mM Mg-chloride, 0.05% Pluronic F-68, 2 mM DTT, pH 7.7) overnight at 4° C. The plates are washed 3 times with PBS-Tween-20. The wells are blocked by incubation at room temperature for 20 minutes with 50 μl blocking buffer (PBS, 0.05% Tween-20, 0.5% BSA). Afterwards the plates are washed 3 times with PBS-Tween-20. The enzymatic reaction is performed in 50 μl reaction solution (50 mM HEPES, 4 mM Mg-chloride, 0.05% Pluronic F-68, 1.4 mM DTT, 0.5% DMSO, pH 7.7) with 10 μM bio-NAD (Biolog, Life science Inst., Bremen, Germany) as co-substrate in the absence or presence of the test compound (10 dilution concentrations) for 1 hour at 30° C. The reaction is stopped by 3 times washing with PBS-Tween-20. For the detection 50 μl of 20 ng/μl Streptavidin, HRP conjugate (MoBiTec, Göttingen, Germany) in PBS/0.05%Tween-20/0.01%BSA are added and the plates are incubated for 30 minutes at room temperature. After three times washing with PBS-Tween-20 50 μl of SuperSignal ELISA Femto Maximum sensitivity substrate solution (ThermoFisherScientific (Pierce), Bonn, Germany) are added. Following a 1 minute incubation at room temperature luminescence signals are measured with an Envision multimode reader (Perkin Elmer LAS Germany GmbH) at 700 nm. The full value used is the inhibitor-free reaction. The pharmacological zero value used is XAV-939 (Tocris) in a final concentration of 5 μM. The inhibitory values (IC50) are determined using either the program Symyx Assay Explorer® or Condosseo® from GeneData.
(In an ELISA, binding on a coated surface is turned into a signal by an enzyme label.)

T1 sequence (Q9H2K2 873-1166): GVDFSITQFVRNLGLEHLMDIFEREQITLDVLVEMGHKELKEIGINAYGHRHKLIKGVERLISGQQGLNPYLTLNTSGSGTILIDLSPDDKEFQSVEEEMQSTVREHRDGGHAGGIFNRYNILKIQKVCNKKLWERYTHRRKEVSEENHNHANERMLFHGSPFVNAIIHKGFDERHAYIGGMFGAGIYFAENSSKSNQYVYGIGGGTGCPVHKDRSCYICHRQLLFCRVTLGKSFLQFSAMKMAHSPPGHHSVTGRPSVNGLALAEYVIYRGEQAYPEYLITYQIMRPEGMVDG

As a reminder, the EC50 is the midpoint of the concentration-response curve. In general, IC50 refers to the concentration at which inhibition is half-maximal. Read a high IC50 as weaker potency in that assay. `CC(C)(O)c1ccc(-c2nn3cccc3c(=O)[nH]2)cc1` [Compound A5, 2-[4-(1-hydroxy-1-methyl-ethyl)-phenyl]-3H-pyrrolo[2,1-f][1,2,4]triazin-4-one]: the EC50 in assay [1] was 300 to 3000 nM. Besides, in assay [2], the IC50 is less than 300 nM.

For `Cn1cc(-c2ccc(-c3nn4cccc4c(=O)[nH]3)cc2)cn1` [Compound A7, 2-[4-(1-methyl-1H-pyrazol-4-yl)-phenyl]-3H-pyrrolo[2,1-f][1,2,4]triazin-4-one], in assay [1], the EC50 fell in the range of 300 to 3000 nM. The IC50 in assay [2] was less than 300 nM.

Regarding `Cc1cc2c(=O)[nH]c(-c3ccc(C(C)(C)O)cc3)nn2c1` [Compound A11, 2-[4-(1-hydroxy-1-methyl-ethyl)phenyl]-6-methyl-3H-pyrrolo[2,1-f][1,2,4]triazin-4-one], the EC50 in assay [1] is 300 to 3000 nM. This molecule also displayed an IC50 in assay [2] of less than 300 nM.

As to `CC(C)(O)c1ccc(-c2nn3cc(F)cc3c(=O)[nH]2)cc1` [Compound A12, 6-fluoro-2-[4-(1-hydroxy-1-methyl-ethyl)phenyl]-3H-pyrrolo[2,1-f][1,2,4]triazin-4-one], in assay [1], the EC50 fell in the range of 300 to 3000 nM. In assay [2], this molecule gave an IC50 of less than 300 nM.

As to `Cc1cc2c(=O)[nH]c(-c3ccc(-c4cnn(C)c4)cc3)nn2c1` [Compound A13, 6-methyl-2-[4-(1-methylpyrazol-4-yl)phenyl]-3H-pyrrolo-[2,1-f][1,2,4]triazin-4-one], the EC50 in assay [1] lay within 300 to 3000 nM. This molecule registered an IC50 in assay [2] of less than 300 nM.

Take `CCC(O)(CC)c1ccc(-c2nn3cccc3c(=O)[nH]2)cc1` [Compound A14, 2-[4-(1-ethyl-1-hydroxy-propyl)-phenyl]-3H-pyrrolo[2,1-f][1,2,4]triazin-4-one]: the EC50 in assay [1] was less than 300 nM. In assay [2], this molecule showed an IC50 of less than 300 nM.

Regarding `CC(C)(OCCO)c1ccc(-c2nn3cccc3c(=O)[nH]2)cc1` [Compound A15, 2-{4-[1-(2-hydroxy-ethoxy)-1-methyl-ethyl]-phenyl}-3H-pyrrolo[2,1-f][1,2,4]triazin-4-one], the EC50 in assay [1] lay in the range of 300 to 3000 nM. Further, the IC50 in assay [2] was less than 300 nM.

In the case of `CC(C)(O)c1ccc(-c2nn3cc(Cl)cc3c(=O)[nH]2)cc1` [Compound A18, 6-chloro-2-[4-(1-hydroxy-1-methyl-ethyl)-phenyl]-3H-pyrrolo[2,1-f][1,2,4]triazin-4-one], the EC50 in assay [1] was 300 to 3000 nM. This molecule had an IC50 in assay [2] of less than 300 nM.

For `O=c1[nH]c(-c2ccc(C3(O)CCCC3)cc2)nn2cccc12` [Compound A21, 2-[4-(1-hydroxy-cyclopentyl)-phenyl]-3H-pyrrolo[2,1-f][1,2,4]-triazin-4-one], in assay [1], the EC50 fell in the range of 300 to 3000 nM. Also, the IC50 in assay [2] was less than 300 nM.
